Reference: patent US20230201292A1, “HERBAL FORMULATION FOR THE PREVENTION AND MANAGEMENT OF TYPE-2 DIABETES MELLITUS AND ASSOCIATED MICROVASCULAR COMPLICATIONS” (priority 2021, published 2023)

System: Streptozotocin (STZ) treated diabetic rats
Test: Streptozotocin (STZ) treated diabetic rats: blood glucose, hs CRP, IL-6, adiponectin
Type: in vivo
Conditions: for Blood glucose level: STZ (65 mg/kg) diabetic rats; for Adiponectin / IL-6 / hs CRP: STZ diabetic rats

**Q.** Which results are given for C[C@H]1O[C@H](O[C@H]2[C@H](O)[C@@H](O)[C@@H](O[C@H]3[C@H](O)[C@@H](O)C(O)O[C@@H]3CO)O[C@@H]2CO)[C@H](O)[C@@H](O)[C@@H]1N[C@H]1C=C(CO)[C@@H](O)[C@H](O)[C@H]1O (stereo partly drawn) [Acarbose]?
**A.** Blood glucose level (7th Days): 228.33 ± 19.44 mg/day; Blood glucose level (14th Days): 192.74 ± 15.18 mg/day; Blood glucose level (28th Days): 157.51 ± 10.24 mg/day; Adiponectin (7th Days): 8.87 ± 2.10 µg/mL; IL-6 (7th Days): 2.87 ± 0.25 pg/mL; hs CRP (7th Days): 6.78 ± 1.52 mg/L; Adiponectin (14th Days): 9.65 ± 1.63 µg/mL; IL-6 (14th Days): 2.49 ± 0.32 pg/mL; hs CRP (14th Days): 5.43 ± 0.75 mg/L; Adiponectin (28th Days): 10.23 ± 2.14 µg/mL; IL-6 (28th Days): 2.23 ± 0.26 pg/mL; hs CRP (28th Days): 4.97 ± 0.87 mg/L
